Experimental data taken from patent US9980943B2, “Methods of treating muscular dystrophy” (BOARD OF REGENTS OF THE NEVADA SYSTEM OF HIGHER EDUCATION, …, priority 2013, dated 2018).

Legend:
Format in all cases: cell-based, mouse
[1] = tested on: α7 integrin (LacZ reporter in α7βgal+/− myoblasts); experiment: Myoblast α7+/LacZ integrin FDG assay (Burkin assay in myoblasts, 96-well); conditions: α7+/LacZ myoblasts, 96-well
[2] = tested on: α7 integrin (LacZ reporter in α7+/LacZ myotubes); experiment: Myotube α7 integrin FDG assay (Burkin assay in myotubes, 96-well); conditions: myotubes
[3] = tested on: β-galactosidase in CMV-LacZ C2C12 myotubes; experiment: CMV-LacZ secondary screen in C2C12 myotubes (β-Gal stabilizing assay); conditions: for CMV-LACZ in Myotubes (β-galactosidase activity relative to DMSO): CMV-LacZ C2C12 myotubes, 96-well format
Method in brief: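 CMV-LacZ C2C12 line (clonal, FDG-screened); myoblasts/myotubes dosed 0.5–40 μM (0.5, 1, 5, 10, 20, 40 μM); n=2 per point; β-gal stabilization read-out.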

[4] = 5 uM, C2C12 CMV-LacZ myotubes, fold relative to DMSO
[5] = 10 uM, C2C12 CMV-LacZ myotubes, fold relative to DMSO
[6] = 20 uM, C2C12 CMV-LacZ myotubes, fold relative to DMSO
[7] = 40 uM, C2C12 CMV-LacZ myotubes, fold relative to DMSO

Row | Structure (SMILES) | Burkin Assay in Myoblasts, value relative to DMSO ([1]; 0.5 uM) | Burkin Assay in Myoblasts, value relative to DMSO ([1]; 1 uM) | Burkin Assay in Myoblasts, value relative to DMSO ([1]; 5 uM) | Burkin Assay in Myoblasts, value relative to DMSO ([1]; 10 uM) | Burkin Assay in Myoblasts, value relative to DMSO ([1]; 20 uM) | Burkin Assay in Myoblasts, value relative to DMSO ([1]; 40 uM) | Burkin Assay in Myotubes (signal relative to DMSO) ([2]; 0.5 uM) | Burkin Assay in Myotubes (signal relative to DMSO) ([2]; 1 uM) | Burkin Assay in Myotubes (signal relative to DMSO) ([2]; 5 uM) | Burkin Assay in Myotubes (signal relative to DMSO) ([2]; 10 uM) | Burkin Assay in Myotubes (signal relative to DMSO) ([2]; 20 uM) | Burkin Assay in Myotubes (signal relative to DMSO) ([2]; 40 uM) | CMV-LACZ in Myotubes (β-galactosidase activity relative to DMSO) ([3]; 5 uM) | CMV-LACZ in Myotubes (β-galactosidase activity relative to DMSO) ([3]; 10 uM) | CMV-LACZ in Myotubes (β-galactosidase activity relative to DMSO) ([3]; 20 uM) | CMV-LACZ in Myotubes (β-galactosidase activity relative to DMSO) ([3]; 40 uM) | CMV-LACZ in Myotubes, signal relative to DMSO [3, 4] | CMV-LACZ in Myotubes, signal relative to DMSO [3, 5] | CMV-LACZ in Myotubes, signal relative to DMSO [3, 6] | CMV-LACZ in Myotubes, signal relative to DMSO [3, 7] | further results
1 | N/C(=N\OC(=O)COc1cc(Cl)c(Cl)cc1Cl)c1ccncc1 [MLS000625140-01] | 0.8839 | 0.8709 | 0.8748 | 0.7833 | 0.7589 | 0.6829 | 0.8484 | 0.8454 | 1.114 | 0.9131 | 0.6793 | 0.6514 | 0.9172 | 1.036 | 1.107 | 1.016 |  |  |  |  | 
2 | CCOc1ccc(S(=O)(=O)NCCC(=O)NCC(c2cccs2)N2CCOCC2)cc1 (centres unmarked) [MLS001080869-01] | 1.144 | 1.036 | 1.147 | 0.9857 | 0.973 | 0.8485 | 1.011 | 0.9574 | 0.974 | 0.9257 | 0.9862 | 0.9802 | 0.9349 | 0.9153 | 0.9927 | 1.01 |  |  |  |  | 
3 | CCCCNC(=O)CSc1nnc(Cc2ccc(Cl)c(Cl)c2)c(=O)[nH]1 [MLS001177259-01] |  |  |  |  |  |  |  |  |  |  |  |  |  |  |  |  | 0.9462 | 0.7316 | 0.8543 | 1.1 | Burkin Assay in Myoblasts, signal relative to DMSO ([1]; 0.5 uM): 0.9606; Burkin Assay in Myoblasts, signal relative to DMSO ([1]; 1 uM): 0.9896; Burkin Assay in Myoblasts, signal relative to DMSO ([1]; 5 uM): 0.9735; Burkin Assay in Myoblasts, signal relative to DMSO ([1]; 10 uM): 0.9165; Burkin Assay in Myoblasts, signal relative to DMSO ([1]; 20 uM): 0.7694; Burkin Assay in Myoblasts, signal relative to DMSO ([1]; 40 uM): 0.7773; Burkin Assay in Myotubes, α7 integrin LacZ reporter signal relative to DMSO ([2]; 0.5 uM): 0.948; Burkin Assay in Myotubes, α7 integrin LacZ reporter signal relative to DMSO ([2]; 1 uM): 1.053; Burkin Assay in Myotubes, α7 integrin LacZ reporter signal relative to DMSO ([2]; 5 uM): 0.9988; Burkin Assay in Myotubes, α7 integrin LacZ reporter signal relative to DMSO ([2]; 10 uM): 1.044; Burkin Assay in Myotubes, α7 integrin LacZ reporter signal relative to DMSO ([2]; 20 uM): 0.8187; Burkin Assay in Myotubes, α7 integrin LacZ reporter signal relative to DMSO ([2]; 40 uM): 0.9237
4 | Cc1ccc(NC(=O)C2CCCCC2C(=O)O)cc1C (centres unmarked) [MLS000850824-01] |  |  |  |  |  |  |  |  |  |  |  |  |  |  |  |  |  |  |  |  | fold induction at 0.5 µM ([1]; Mus musculus, Myoblast, 48 h, 0.5 uM, read-out: Burkin Assay in Myoblasts, value relative to DMSO): 1.17; fold induction at 1 µM ([1]; Mus musculus, Myoblast, 48 h, 1 uM, read-out: Burkin Assay in Myoblasts, value relative to DMSO): 1.27; fold induction at 5 µM ([1]; Mus musculus, Myoblast, 48 h, 5 uM, read-out: Burkin Assay in Myoblasts, value relative to DMSO): 1.08; fold induction at 10 µM ([1]; Mus musculus, Myoblast, 48 h, 10 uM, read-out: Burkin Assay in Myoblasts, value relative to DMSO): 1.08; fold induction at 20 µM ([1]; Mus musculus, Myoblast, 48 h, 20 uM, read-out: Burkin Assay in Myoblasts, value relative to DMSO): 0.986; fold induction at 40 µM ([1]; Mus musculus, Myoblast, 48 h, 40 uM, read-out: Burkin Assay in Myoblasts, value relative to DMSO): 1.06; fold induction at 0.5 µM ([2]; Mus musculus, Myotube, 0.5 uM, read-out: Burkin Assay in Myotubes (signal relative to DMSO)): 0.908; fold induction at 1 µM ([2]; Mus musculus, Myotube, 1 uM, read-out: Burkin Assay in Myotubes (signal relative to DMSO)): 1.09; fold induction at 5 µM ([2]; Mus musculus, Myotube, 5 uM, read-out: Burkin Assay in Myotubes (signal relative to DMSO)): 0.99; fold induction at 10 µM ([2]; Mus musculus, Myotube, 10 uM, read-out: Burkin Assay in Myotubes (signal relative to DMSO)): 1.07; fold induction at 20 µM ([2]; Mus musculus, Myotube, 20 uM, read-out: Burkin Assay in Myotubes (signal relative to DMSO)): 1.14; fold induction at 40 µM ([2]; Mus musculus, Myotube, 40 uM, read-out: Burkin Assay in Myotubes (signal relative to DMSO)): 1.21; fold induction at 5 µM ([3]; Mus musculus, C2C12, read-out: CMV-LACZ in Myotubes, signal relative to DMSO, 5 uM, C2C12 CMV-LacZ myotubes, fold relative to DMSO): 0.885; fold induction at 10 µM ([3]; Mus musculus, C2C12, read-out: CMV-LACZ in Myotubes, signal relative to DMSO, 10 uM, C2C12 CMV-LacZ myotubes, fold relative to DMSO): 0.992; fold induction at 20 µM ([3]; Mus musculus, C2C12, read-out: CMV-LACZ in Myotubes, signal relative to DMSO, 20 uM, C2C12 CMV-LacZ myotubes, fold relative to DMSO): 0.995; fold induction at 40 µM ([3]; Mus musculus, C2C12, read-out: CMV-LACZ in Myotubes, signal relative to DMSO, 40 uM, C2C12 CMV-LacZ myotubes, fold relative to DMSO): 0.946
5 | Cc1cc(C)nc(NC(=O)c2ccc(Cl)cc2Cl)n1 [MLS000706349-01] |  |  |  |  |  |  |  |  |  |  |  |  |  |  |  |  | 0.9465 | 0.9553 | 1.0245 | 1.1355 | Burkin Assay in Myoblasts, signal relative to DMSO ([1]; 0.5 uM): 1.086; Burkin Assay in Myoblasts, signal relative to DMSO ([1]; 1 uM): 0.9797; Burkin Assay in Myoblasts, signal relative to DMSO ([1]; 5 uM): 0.8593; Burkin Assay in Myoblasts, signal relative to DMSO ([1]; 10 uM): 0.8434; Burkin Assay in Myoblasts, signal relative to DMSO ([1]; 20 uM): 0.8584; Burkin Assay in Myoblasts, signal relative to DMSO ([1]; 40 uM): 0.6533; Burkin Assay in Myotubes, α7 integrin LacZ reporter signal relative to DMSO ([2]; 0.5 uM): 1.193; Burkin Assay in Myotubes, α7 integrin LacZ reporter signal relative to DMSO ([2]; 1 uM): 1.008; Burkin Assay in Myotubes, α7 integrin LacZ reporter signal relative to DMSO ([2]; 5 uM): 0.9738; Burkin Assay in Myotubes, α7 integrin LacZ reporter signal relative to DMSO ([2]; 10 uM): 0.9294; Burkin Assay in Myotubes, α7 integrin LacZ reporter signal relative to DMSO ([2]; 20 uM): 1.073; Burkin Assay in Myotubes, α7 integrin LacZ reporter signal relative to DMSO ([2]; 40 uM): 0.9239
6 | COCCN1C=C(C(=O)OC)C(c2ccccc2Cl)C(C(=O)OC)=C1 [MLS000718886-01] | 1.052 | 0.9394 | 1.087 | 0.9661 | 0.9124 | 0.8139 | 0.9819 | 0.9591 | 1.068 | 0.9981 | 0.938 | 0.9785 | 0.9787 | 0.9804 | 0.8798 | 0.8355 |  |  |  |  | 
7 | COc1cc(NC(=O)CN(C)S(=O)(=O)c2ccc3c(c2)CC(C)N3C(C)=O)cc(OC)c1OC (centres unmarked) [MLS001122792-01] | 0.9702 | 0.8787 | 0.913 | 0.8643 | 0.9989 | 0.8058 | 1.192 | 1.032 | 1.102 | 0.6414 | 1.068 | 0.8522 |  |  |  |  | 0.8137 | 0.9675 | 0.9969 | 0.7254 | 
8 | CCCCNS(=O)(=O)c1ccc2nc(-c3cccnc3)cc(C(=O)NCCOC)c2c1 [MLS000673766-01] | 1.02 | 1.061 | 0.928 | 1.0253 | 0.91 | 0.9919 | 0.968 | 0.9862 | 0.896 | 0.9276 | 0.8272 | 0.8717 |  |  |  |  | 0.9847 | 0.9632 | 1.11 | 1.04 | 
